{"source": "paper PMC3068608", "about": "(Journal of medicinal chemistry, 2011)", "key": {"[1]": {"biological_target": "T1, human μ opioid receptor (Homo sapiens, UniProt P35372)", "T1 sequence (P35372 whole entry)": "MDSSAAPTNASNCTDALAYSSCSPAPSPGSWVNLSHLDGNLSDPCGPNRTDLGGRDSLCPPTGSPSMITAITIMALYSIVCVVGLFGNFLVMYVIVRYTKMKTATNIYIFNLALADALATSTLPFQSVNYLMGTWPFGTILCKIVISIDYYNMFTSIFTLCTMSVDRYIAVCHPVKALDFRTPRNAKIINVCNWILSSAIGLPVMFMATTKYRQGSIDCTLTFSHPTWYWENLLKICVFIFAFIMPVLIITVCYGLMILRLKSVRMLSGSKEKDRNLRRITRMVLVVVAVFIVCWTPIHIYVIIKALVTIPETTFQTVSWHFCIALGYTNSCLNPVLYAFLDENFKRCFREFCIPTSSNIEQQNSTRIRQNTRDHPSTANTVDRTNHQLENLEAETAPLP", "assay": "[35S]GTPγS binding mediated by the μ opioid receptor, CHO membranes", "type": "biochemical", "conditions": "for pharmacological properties / IC50: μ receptor; for pharmacological properties: [35S]GTPγS; for IC50: inhibition of binding stimulated by 200 nM DAMGO"}, "[2]": {"biological_target": "T2, human κ opioid receptor (Homo sapiens, UniProt P41145)", "T2 sequence (P41145 whole entry)": "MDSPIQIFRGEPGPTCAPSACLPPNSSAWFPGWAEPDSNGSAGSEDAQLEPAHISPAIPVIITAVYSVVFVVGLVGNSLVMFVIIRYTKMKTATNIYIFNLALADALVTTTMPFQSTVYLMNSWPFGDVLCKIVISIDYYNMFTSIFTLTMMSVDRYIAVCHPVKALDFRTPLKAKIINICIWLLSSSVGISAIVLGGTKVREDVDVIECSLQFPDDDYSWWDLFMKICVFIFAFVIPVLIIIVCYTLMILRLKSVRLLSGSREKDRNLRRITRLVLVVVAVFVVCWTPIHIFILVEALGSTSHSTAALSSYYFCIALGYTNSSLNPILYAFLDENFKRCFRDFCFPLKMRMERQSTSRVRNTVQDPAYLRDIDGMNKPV", "assay": "[35S]GTPγS binding mediated by the κ opioid receptor, CHO membranes", "type": "biochemical", "conditions": "for Emax ± SEM (% maximal stimulation): κ receptor, [35S]GTPγS"}, "[3]": {"biological_target": "T1, human μ opioid receptor", "assay": "Opioid receptor binding, [3H]DAMGO, CHO cell membranes", "conditions": "for Ki (nM) ± SEM [3H]DAMGO (μ): CHO membranes, human μ receptor, 25 °C"}, "[4]": {"biological_target": "T2, human κ opioid receptor", "assay": "Opioid receptor binding, [3H]U69,593, CHO cell membranes", "conditions": "for Ki (nM) ± SEM [3H]U69,593 (κ): CHO membranes, human κ receptor, 25 °C; for Selectivity σ/κ: ratio of Ki values (δ over κ)"}, "[5]": {"conditions": "acute and chronic treatment; ref [7]; cited from earlier work"}, "[6]": {"biological_target": "T1, human μ opioid receptor", "conditions": "[35S]GTPγS, ref [5c],[10c]; cited from earlier work"}, "[7]": {"biological_target": "T2, human κ opioid receptor", "conditions": "[35S]GTPγS, ref [5c],[10c]; cited from earlier work"}, "[8]": {"biological_target": "T3, human δ opioid receptor (Homo sapiens, UniProt P41143)", "T3 sequence (P41143 whole entry)": "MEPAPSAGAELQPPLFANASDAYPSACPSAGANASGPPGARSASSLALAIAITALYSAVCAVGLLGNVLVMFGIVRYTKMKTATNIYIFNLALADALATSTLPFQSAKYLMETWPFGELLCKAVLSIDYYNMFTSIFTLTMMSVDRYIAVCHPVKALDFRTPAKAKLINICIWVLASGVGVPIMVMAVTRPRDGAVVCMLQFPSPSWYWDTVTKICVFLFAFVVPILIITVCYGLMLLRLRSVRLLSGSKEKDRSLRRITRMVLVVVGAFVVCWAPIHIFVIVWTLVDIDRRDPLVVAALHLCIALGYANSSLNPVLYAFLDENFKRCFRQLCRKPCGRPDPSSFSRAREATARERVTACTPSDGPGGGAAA", "conditions": "at 10 μM; ref [5c], [10c], [11]; cited from earlier work"}, "[9]": {"biological_target": "T2, human κ opioid receptor", "conditions": "ratio of Ki values (δ over κ), literature compounds; ref [5c], [10c], [11]; cited from earlier work"}, "[10]": {"biological_target": "T3, human δ opioid receptor", "assay": "Opioid receptor binding, [3H]naltrindole, CHO cell membranes"}}, "note": "Entries after “also recorded” stand apart in the source; their conditions may differ. Read-outs that look alike come from different tables or passages of the source.", "data": [{"smiles": "CNc1nc2cc3c(cc2s1)C[C@@H]1[C@@H]2CCCC[C@]32CCN1CC1CC1", "note": "[13a, N′-Methylaminothiazolo[5,4-b]-N-cyclopropylmethylmorphinan]", "values": [{"measurement": "pharmacological properties", "setting": "[1]", "value": "partial agonist activity; also recorded: partial agonists"}]}, {"smiles": "CNc1nc2cc3c(cc2s1)C[C@@H]1[C@@H]2CCCC[C@]32CCN1CCCF", "note": "[13c, N′-Methyl-aminothiazolo[5,4-b]-N-fluoropropylmorphinan]", "values": [{"measurement": "EC50", "setting": "[2]", "value": "120 ± 6.7", "unit": "nM"}, {"measurement": "Emax ± SEM (% maximal stimulation)", "setting": "[2]", "value": "higher Emax than that of selective agonist U50,488"}, {"measurement": "EC50", "setting": "[1]", "value": "420 ± 17", "unit": "nM"}, {"measurement": "pharmacological properties", "setting": "[1]", "value": "full agonist activity; also recorded: full agonists"}, {"measurement": "IC50", "setting": "[1]", "value": "> 10000", "unit": "nM"}]}, {"smiles": "CCCNc1nc2cc3c(cc2s1)C[C@@H]1[C@@H]2CCCC[C@]32CCN1CCCF", "note": "[16c, N′-Propyl-aminothiazolo[5,4-b]-N-fluoropropylmorphinan]", "values": [{"measurement": "Ki (nM) ± SEM [3H]DAMGO (μ)", "setting": "[3]", "value": "low affinity"}, {"measurement": "Ki (nM) ± SEM [3H]U69,593 (κ)", "setting": "[4]", "value": "low affinity"}]}, {"smiles": "CN(C)c1nc2cc3c(cc2s1)C[C@@H]1[C@@H]2CCCC[C@]32CCN1CC1CC1", "note": "[17a, N′, N′-Dimethyl-aminothiazolo[5,4-b]-N-cyclopropylmethylmorphinan]", "values": [{"measurement": "pharmacological properties", "setting": "[1]", "value": "partial agonist activity"}]}, {"smiles": "CN(C)c1nc2cc3c(cc2s1)C[C@@H]1[C@@H]2CCCC[C@]32CCN1CCCF", "note": "[17c, N′, N′-Dimethyl-aminothiazolo[5,4-b]-N-fluoropropylmethylmorphinan]", "values": [{"measurement": "Ki (nM) ± SEM [3H]DAMGO (μ)", "setting": "[3]", "value": "low affinity"}, {"measurement": "Ki (nM) ± SEM [3H]U69,593 (κ)", "setting": "[4]", "value": "low affinity"}]}, {"smiles": "CCNc1nc2cc3c(cc2s1)C[C@@H]1[C@@H]2CCCC[C@]32CCN1CC1CC1", "note": "[19a, N′-Ethyl-aminothiazolo[5,4-b]-N-cyclopropylmethylmorphinan]", "values": [{"measurement": "EC50", "setting": "[2]", "value": "22 ± 5.1", "unit": "nM"}, {"measurement": "Emax ± SEM (% maximal stimulation)", "setting": "[2]", "value": "higher Emax than that of selective agonist U50,488"}, {"measurement": "EC50", "setting": "[1]", "value": "29 ± 4.6", "unit": "nM"}, {"measurement": "pharmacological properties", "setting": "[1]", "value": "full agonist activity; also recorded: full agonists"}, {"measurement": "IC50", "setting": "[1]", "value": "> 10000", "unit": "nM"}]}, {"smiles": "CCNc1nc2cc3c(cc2s1)C[C@@H]1[C@@H]2CCCC[C@]32CCN1CCCF", "note": "[19c, N′-Ethyl-aminothiazolo[5,4-b]-N-fluoropropylmorphinan]", "values": [{"measurement": "Emax ± SEM (% maximal stimulation)", "setting": "[2]", "value": "higher Emax than that of selective agonist U50,488"}, {"measurement": "pharmacological properties", "setting": "[1]", "value": "full agonist activity; also recorded: full agonists"}, {"measurement": "IC50", "setting": "[1]", "value": "> 10000", "unit": "nM"}]}, {"smiles": "Oc1ccc2c(c1)[C@@]13CCCC[C@H]1[C@@H](C2)N(CC1CCC1)CC3", "note": "[butorphan]", "values": [{"measurement": "cocaine self-administration", "setting": "[5]", "value": "reduced cocaine self-administration dose-dependently"}]}, {"smiles": "Oc1ccc2c(c1)[C@@]13CCCC[C@H]1[C@@H](C2)N(CC1CC1)CC3", "note": "[compound 1, cyclorphan, reference compound]", "values": [{"measurement": "cocaine self-administration", "setting": "[5]", "value": "reduced cocaine self-administration dose-dependently"}, {"measurement": "pharmacological properties", "setting": "[6]", "value": "Partial agonist"}, {"measurement": "Emax ± SEM (% maximal stimulation)", "setting": "[7]", "value": "90 ±10", "unit": "% maximal stimulation"}]}, {"smiles": "Nc1nc2cc3c(cc2o1)[C@@]12CCCC[C@H]1[C@@H](C3)N(CC1CC1)CC2", "note": "[compound 4]", "values": [{"measurement": "inhibition of [3H]Naltrindole (δ) binding", "setting": "[8]", "value": 18, "unit": "% inh at 10 μM"}, {"measurement": "Selectivity σ/κ", "setting": "[9]", "value": ">192"}]}, {"smiles": "Nc1nc2cc3c(cc2s1)C[C@@H]1[C@@H]2CCCC[C@]32CCN1CCCF", "note": "[compound 11, Aminothiazolo[5,4-b]-N-fluoropropylmorphinan]", "values": [{"measurement": "pharmacological properties", "setting": "[1]", "value": "partial agonist activity"}]}, {"smiles": "Nc1nc2cc3c(cc2s1)C[C@@H]1[C@@H]2CCCC[C@]32CCN1C[C@@H]1CCCO1", "note": "[compound 12, Aminothiazolo[5,4-b]-N-(S)-tetrahydrofurylmethylmorphinan]", "values": [{"measurement": "pharmacological properties", "setting": "[1]", "value": "full agonist activity; also recorded: full agonists"}, {"measurement": "IC50", "setting": "[1]", "value": "> 10000", "unit": "nM"}]}, {"smiles": "FC(F)(F)CNc1nc2cc3c(cc2s1)C[C@@H]1[C@@H]2CCCC[C@]32CCN1CC1CC1", "note": "[compound 15, N′-Trifluoroethyl-aminothiazolo[5,4-b]-N-cyclopropylmethylmorphinan]", "values": [{"measurement": "Emax ± SEM (% maximal stimulation)", "setting": "[2]", "value": "higher Emax than that of selective agonist U50,488"}]}, {"smiles": "c1ccc(Nc2nc3cc4c(cc3s2)C[C@@H]2[C@@H]3CCCC[C@]43CCN2CC2CC2)nc1", "note": "[compound 27, N′-(Pyridin-2-yl)-aminothiazolo[5,4-b]-N-cyclopropylmethylmorphinan]", "values": [{"measurement": "Selectivity σ/κ", "setting": "[4]", "value": ">110"}]}, {"smiles": "c1c2c(cc3sc(N4CCNCC4)nc13)C[C@@H]1[C@@H]3CCCC[C@]23CCN1CC1CC1", "note": "[compound 28, N′-(Piperazin-1-yl)-thiazolo[5,4-b]-N-cyclopropylmethylmorphinan]", "values": [{"measurement": "Ki", "setting": "[3]", "value": "2700 ± 320", "unit": "nM"}, {"measurement": "Ki", "setting": "[10]", "value": "> 10000", "unit": "nM"}, {"measurement": "Ki", "setting": "[4]", "value": "110 ± 16", "unit": "nM"}, {"measurement": "Selectivity μ/κ", "setting": "[4]; ratio of Ki values", "value": 25}, {"measurement": "Selectivity σ/κ", "setting": "[4]", "value": ">91"}]}]}
